“Also recorded” adds a separate entry of the source. Square brackets hold non-standard residues; d marks the D form. Peptide text beside a SMILES is read from it. * marks the point of attachment. Nle = CCCC[C@H](N)C(=O)O; Cbz = O=C(OCc1ccccc1)*
Key:
[1] = tested on: NOXA; experiment: Western blot of pro-apoptotic proteins in normal melanocytes treated with z-Leu-Leu-Nle-CHO; type: cell-based, human; settings: data not shown
[2] = tested on: MDA-MB-231 breast cancer cells; experiment: z-Leu-Leu-Nle-CHO plus Paclitaxel, growth inhibition of MDA-MB-231 cells; type: cell-based, human; settings: 0-0.8 μM with Paclitaxel, 48 h
Procedure: (§1) Three different types of breast cancer cells were contacted with varying concentrations of z-Leu-Leu-Nle-CHO (0-0.8 μM) and the mitotic poison Paclitaxel (0.01-1 μM). MDA-MB231 cells were obtained from ATCC (Rockville, Md.). T47D:C42 and T47D:A18 cells were a kind gift of Debra Tonetti (University of Illinois-Chicago). MDA-MB231 cells were cultured in DMEM medium with 10% FBS. T47D:C42 and T47D:A18 cells were propagated in RPMI 1640 with 10% FBS, 100 μM non-essential amino acid and 6 ng/ml insulin. Gamma-secretase inhibitor z-Leu-Leu-Nle-CHO (Calbiochem 565750) was dissolved in DMSO, aliquoted and stored at −80° C. Paclitaxel (Sigma, St. Louis Mo.) was dissolved in DMSO, aliquoted and stored at −80° C.
(§2) To determine whether z-Leu-Leu-Nle-CHO treatment potentiates the effect of Paclitaxel on human breast cancer cells, MDA-MB231, T47D:C42 and T47D:A18 cells were treated for 48 h with 0-0.8 μM z-Leu-Leu-Nle-CHO and various concentrations of Paclitaxel (0.008-1 μM) Following the z-Leu-Leu-Nle-CHO and Paclitaxel treatment, the cells were tested for growth inhibition as described above in Example 13.

[3] = tested on: NOXA; experiment: Western blot of pro-survival and pro-apoptotic proteins in melanoma cells; type: cell-based, human; settings: 10 μM
Procedure: To assess the effect of z-Leu-Leu-Nle-CHO on pro-apoptotic proteins, RJ002L pulmonary metastases melanoma cells were grown in RPMI supplemented with 10% FBS. Highly proliferating cells (i.e., cells that had reached approximately 30% confluency) were exposed to z-Leu-Leu-Nle-CHO by replenishing the culture media with media containing z-Leu-Leu-Nle-CHO (10 μM) (experimental group) or media without z-Leu-Leu-Nle-CHO (control group) and the cells were incubated for a specified period of time prior to harvesting the cells for further analysis.
Western blot analyses following z-Leu-Leu-Nle-CHO and control treatment of RJ002L melanoma cells were performed to determine the effect of z-Leu-Leu-Nle-CHO on pro-survival and pro-apoptotic proteins. Whole cell extracts were prepared and analyzed as described by Denning, M. F. et al., 1998, J Biol Chem 273: 29995-30002, 1998. The enriched mitochondria pellet and mitochondria-free cytosol of melanoma cells were prepared with the APO ALERT cell fraction kit (Clontech Laboratories, Inc. Palo Alto, Calif.) according to the manufacturer's instructions. For Western blot analysis, equal amounts of protein extracted from each sample (20-30 μg) were loaded into pre-cast 7% NuPAGE Tris-acetate gels or 4-12% NuPAGE Bis-tris gels (Invitrogen). Proteins were separated by SDS-PAGE and transferred to polyvinylidene difluoride membranes (Bio-Rad, Hercules, Calif.) using Invitrogen's buffering system. The indicated primary antibodies were incubated for indicated period of time, washed, and visualized by incubation with horseradish peroxidase-conjugated secondary antibodies and chemiluminescent reagents (Roche Diagnostics Corporation, Indianapolis, Ind.). Antibodies used were as follows: From Santa Cruz Biotechnology: Bcl-2 (SC-7382), BCl-xL (SC-634), Mcl-1 (SC-819), survivin (SC-10811), Bax (SC-493), Bak (SC-832), Bim (SC-11425), PUMA (SC-19187), p53 (SC-126), and GADD45 (SC-796); From Cell Signaling: Bid (#2002), and cleaved caspase 9 (9501); NOXA (OP180—Oncogene Research Products), Apaf-1 (559683-BD Bioscience), Smac/Diablo (IMG-248-Imgenex), cytochrome C (part of kit—Apo Alert™ cell fraction kit—Clontech Laboratories, Inc.—Palo Alto, Calif.), PARP (Pharmingen, San Diego, Calif.) and β-actin (Sigma Chemical Co., St. Louis, Mo.). Secondary antibodies anti-goat, anti-mouse, anti-rabbit and anti-rat (IgG-HRP) were purchased from Vector Laboratories (Burlingame, Calif.), Santa Cruz Biotechnology and Amersham Biosciences.
To determine if p53 status influences induction of NOXA, NOXA induction in z-Leu-Leu-Nle-CHO-treated melanoma cell lines (10 μM) containing p53 mutations (i.e. C8161, SK-MeI-28, MUM2B) were examined using Western blot analysis as described above and compared to that of Western blot results from z-Leu-Leu-Nle-CHO-treated melanoma cell lines (10 μM) having wild-type p53 (RJ002L, SK-MeI-100). […] In contrast, C8161, which carries a R196Stop mutation in only one allele, has p53 expression similar to that observed in wild-type cell lines. […] NOXA induction occurred earlier in SK-MeI-100 cells than in the other tested cell lines (FIG. 2C). Apaf-1 levels were not increased in response to z-Leu-Leu-Nle-CHO (data not shown).

[4] = tested on: T47D:C42 breast cancer cells; experiment: z-Leu-Leu-Nle-CHO plus Paclitaxel, growth inhibition of T47D:C42 cells; type: cell-based, human; settings: 0-0.8 μM with Paclitaxel, 48 h
Procedure: as §1, §2

[5] = tested on: SAOS-2 osteosarcoma cells; experiment: z-Leu-Leu-Nle-CHO on NOXA and apoptosis in SAOS-2 osteosarcoma cells; type: cell-based; settings: 10 μM

SMILES: CCCC[C@@H](C=O)NC(=O)[C@H](CC(C)C)NC(=O)[C@H](CC(C)C)NC(=O)OCc1ccccc1 [z-Leu-Leu-Nle-CHO, N-benzyloxycarbonyl-leucyl-leucyl-norleucinal] (Cbz-Leu-Leu-[Nle]-aldehyde)
- induction of pro-apoptotic proteins (Bak, Bim, NOXA) [1]: did not induce any of the pro-apoptotic proteins; also recorded: did not induce NOXA in normal melanocytes
- effect on Paclitaxel cell growth inhibition [2]: moderately potentiated the effects of Paclitaxel on cell growth inhibition
- induction of pro-apoptotic proteins ([3]; RJ002L): induced expression of Bak, Bim, and NOXA
- time course of NOXA induction ([3]; RJ002L): detectable as early as 1 hr and was massive by 6-18 hrs
- NOXA induction ([3]; all tested melanoma cell lines, regardless of p53 mutation status): induced NOXA in all tested melanoma cell lines
- effect on Paclitaxel cell growth inhibition [4]: potentiated the effects of Paclitaxel on cell growth inhibition
- NOXA expression ([5]; SAOS-2, p53 null): induced expression of NOXA
- dead cells ([5]; SAOS-2, after 24 hrs, data not shown): > 50%

Source: patent US20080220416A1, “Compositions for Inhibiting Cell Growth and Inducing Apoptosis in Cancer Cells and Methods of Use Thereof” (THE BOARD OF TRUSTEES OF THE UNIVERSITY OF ILLINOI, priority 2004, published 2008)
